Structures are written as SMILES.

human μ opiate receptor, sequence (P35372 whole entry): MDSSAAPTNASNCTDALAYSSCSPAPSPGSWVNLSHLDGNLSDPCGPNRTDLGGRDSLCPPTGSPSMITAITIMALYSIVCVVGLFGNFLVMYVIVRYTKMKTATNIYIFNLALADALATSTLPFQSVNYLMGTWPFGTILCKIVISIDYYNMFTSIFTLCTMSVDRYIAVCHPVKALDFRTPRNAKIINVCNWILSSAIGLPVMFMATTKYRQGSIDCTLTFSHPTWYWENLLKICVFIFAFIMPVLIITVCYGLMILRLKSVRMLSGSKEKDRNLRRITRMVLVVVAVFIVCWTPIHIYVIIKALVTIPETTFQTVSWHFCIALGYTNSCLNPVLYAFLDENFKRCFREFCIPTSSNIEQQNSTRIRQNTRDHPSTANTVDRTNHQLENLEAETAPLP

The first series has as its target human μ opiate receptor (Homo sapiens, UniProt P35372). Kind of series: μ opiate receptor binding assay with [3H]-naloxone (WGA-SPA beads). The note with it: mean.
Turning to `CN(C)C1(Cc2ccccc2)CCC2(CCNC2=O)CC1` (single isomer, unassigned) [Example 1, 8-Benzyl-8-(dimethyl-amino)-3-azaspiro[4.5]decan-4-one], the affinity, expressed as Ki, was 1.06 µM.
The same measure, in the same setting: to `CN(C)C1(Cc2ccccc2)CCC2(CCNC2=O)CC1` (single isomer, unassigned) [Example 2, 8-Benzyl-8-(dimethyl-amino)-3-azaspiro[4.5]decan-4-one] belongs 4.79 µM; to `CN(C)C1(Cc2ccccc2)CCC2(CCNC2)CC1` (single isomer, unassigned) [Example 3, (8-Benzyl-3-azaspiro[4.5]decan-8-yl)-dimethylamine], 1.83 µM; to `CN(C)C1(Cc2ccccc2)CCC2(CCNC2)CC1` (single isomer, unassigned) [Example 4, (8-Benzyl-3-azaspiro[4.5]decan-8-yl)-dimethylamine], 0.92 µM.
In turn, `CN1CCC2(CCC(Cc3ccccc3)(N(C)C)CC2)C1` (single isomer, unassigned) [Example 5, (8-Benzyl-3-methyl-3-azaspiro[4.5]decan-8-yl)-dimethylamine] registered a Ki of 1.45 µM.
Regarding `CN1CCC2(CCC(Cc3ccccc3)(N(C)C)CC2)C1` (single isomer, unassigned) [Example 6, (8-Benzyl-3-methyl-3-azaspiro[4.5]decan-8-yl)-dimethylamine], the inhibitory constant (Ki) was 1.1 µM.
For the compound `CCCCN1CCC2(CCC(C(=O)c3ccccc3)(N(C)C)CC2)C1` (single isomer, unassigned) [Example 107, [3-Butyl-8-(dimethylamino)-3-azaspiro[4.5]decan-8-yl]-phenylmethanone], the inhibition constant (Ki) came out at 0.95 µM.
On the same count and under the same terms, to `CN(C)C1(CC2CCCCC2)CCC2(CCNC2=O)CC1` (centres unmarked) [Example 92, 8-(Cyclohexylmethyl)-8-dimethylamino-3-azaspiro[4.5]decan-4-one] belongs 3590 µM; to `CN1CCC2(CCC(Cc3ccccc3)(N(C)C)CC2)C1=O` (centres unmarked) [Example 118], 5.5 µM.
On the same count and under the same terms, to `CN1CCC2(CCC(Cc3ccccc3)(N(C)C)CC2)C1=O` (centres unmarked) [Example 119] belongs 3.57 µM; to `CN1CC2(CCC(C3CCCC3)(N(C)C)CC2)CC1=O` (centres unmarked) [Example 282], 0.295 µM; to `CN(C)C1(C2CCCC2)CCC2(CCN(C(=O)C3COC3)C2)CC1` (centres unmarked) [Example 291], 0.175 µM.

Tested on in the next series: not given
Assay: not given
Conditions: not given
For `CN(C)C1(Cc2ccccc2)CCC2(CCNC2=O)CC1` (single isomer, unassigned) [Example 2, 8-Benzyl-8-(dimethyl-amino)-3-azaspiro[4.5]decan-4-one], the melting point was 202 to 204 °C.
The same measure, in the same setting: in the case of `CN1CCC2(CCC(Cc3ccccc3)(N(C)C)CC2)C1` (single isomer, unassigned) [Example 6, (8-Benzyl-3-methyl-3-azaspiro[4.5]decan-8-yl)-dimethylamine] it was 57 to 58 °C.

The record behind these values is patent US10202345B2, “Substituted azaspiro(4.5)decane derivatives” (priority 2014, dated 2019).
